Laboratory results as given in US20220110882A1, “SYNTHETICALLY LETHAL NANOPARTICLES FOR TREATMENT OF CANCERS” (UNIVERSITY OF IOWA RESEARCH FOUNDATION, priority 2017, published 2022).

What was measured:
GOF Hec50co cells = assay: BIBFs effect on NPs uptake using flow cytometry; assay type: cell-based, human; details: 1 μM BIBFs, 6 h, serum containing media
Procedure: (§1) BIBFs effect on NPs uptake using flow cytometry. The effect of BIBFs on the uptake of different RHDp against Hec50co cells and GOF Hec50co cells was tested. Both cell lines were plated at a seeding density of 10^5 cell/well in 12 well plate, and then the experiment was carried out as mentioned in section [00125]) with two exceptions: a) RHDp uptake was evaluated in the presence or absence of 1 μM BIBFs, b) the experiment was carried out in serum containing media to mimic the in vivo conditions.

Hec50co cells [1] = assay: BIBFs effect on NPs uptake using flow cytometry; assay type: cell-based, human; details: 1 μM BIBFs, 6 h, serum containing media
Procedure: as §1

Hec50co cells [2] = details: 5 mg/kg each IV on days 18, 25, 32
Procedure: In vivo efficacy studies using mouse xenograft model of LOF p53 USC. Female athymic NCI-nu/nu mice (Charles River, Wilmington, Mass.) at the age of 6-8 weeks were challenged subcutaneously with 2×10^6 Hec50co cells in the right flank after isoflurane anesthesia. […] Mice were 5 per group, except the group that received the combination therapy were 7. Treatments were administered TV through retro-orbital injections in the venous sinus on days 18, 25, and 32. The tumor diameters and height were measured using digital caliper. The tumor volumes were calculated from the following formula:
Where D1 is the first tumor diameter (mm), D2 is the second tumor diameter (mm), and H is the tumor height.
Mice weights were monitored during the experiment and mice were euthanized once the tumor diameter exceeded 2 cm or tumor height exceeded 1 cm. Sample sizes for this experiment were estimated based on preliminary data in order to have 80% power to detect significant differences between groups. All animal experiments were not blinded, and were carried out in accordance with guidelines and regulations approved by the University of Iowa Institutional Animal Care and Use Committee.

Structure (SMILES)	increase in fluorescence intensity on addition to RHDp (75/T) (GOF Hec50co cells)	increase in fluorescence intensity on addition to RHDp (75/T) (Hec50co cells [1])	median survival (Hec50co cells [2])
COC(=O)c1ccc2c(c1)NC(=O)/C2=C(\Nc1ccc(N(C)C(=O)CN2CCN(C)CC2)cc1)c1ccccc1 [BIBFs, BIBF-1120]	1.5 fold	1.5 fold	
CC(=O)O[C@H]1C(=O)[C@@]2(C)[C@H]([C@H](OC(=O)c3ccccc3)[C@]3(O)C[C@H](OC(=O)[C@H](O)[C@@H](NC(=O)c4ccccc4)c4ccccc4)C(C)=C1C3(C)C)[C@]1(OC(C)=O)CO[C@@H]1C[C@@H]2O [PTXs, paclitaxel]			41 days
